Measurements from patent publication US7589123B2, “Chemical compounds” (Phytopharm PLC, priority 2006, dated 2009).

Assays:
[1] = tested on: histamine-induced contractions in guinea pig ileum; test: Inhibition of histamine-induced contractions in guinea pig ileum (Assay 3); settings: Cavia porcellus, histamine 1.7 μM, read-out: Inhibition of histamine-induced contraction (%)
Description: (§1) Duncan Hartley derived male guinea pigs (325±25 g) were suppressed by CO2 overexposure, the abdominal cavity was exposed and ileal segments were removed. Small strips of ileum were suspended in organ baths containing Krebs solution (composition in g/l: NaCl 6.89, KCl 0.35, CaCl2 0.277, KH2PO4 0.163, MgSO4.7H2O 0.296, NaHCO3 2.1 glucose 1.8). The solution was kept at 32° C. and gassed with O2 (95%)-CO2 (5%) to maintain pH at 7.4. Mechanical activity was recorded by means of isotonic transducers. A resting tension of 1 g was applied to muscle strips before being equilibrated for 1 h, prior to test compound addition. Each preparation was washed twice at 15 min intervals during the equilibration.
(§2) Histamine (1.7 μM; approximately EC60-70) or 5-hydroxytryptamine (5-HT, 2.6 μM; approximately EC60-70) was applied for 5 min and the amplitude of the contraction recorded. The histamine or 5-HT was then washed out until the ileal tissue returned to baseline. Five min after returning to baseline test compound (3 and 30 μM) was applied and the amplitude of the contraction (if any) was recorded. In the continuous presence of test compound, histamine or 5-HT was re-applied and the inhibition of the response was recorded.

[2] = tested on: WI-38 cells; test: Viability of WI-38 cells, Alamar Blue (Assay 5); format: cell-based, human
Description: (§3) Human diploid lung fibroblasts (WI-38 cells) were incubated overnight in the presence of IL-1α (1 nM) and test compound (3 and 30 μM) in modified Eagle medium at pH 7.3 containing foetal bovine serum (10%) at 37° C. The supernatant was assayed by radioimmunoassay for released PGE2 and the inhibition of PGE2 by test compound calculated (Table 10). The viability of the cells was then assessed by washing with Roswell Park Memorial Institute medium and adding Alamar Blue reagent before being incubated at 37° C. for 4 h. Living cells take up Alamar Blue and emit fluorescence when excited. Fluorescence intensity was measured using a SpectroFluor Plus plate reader with excitation at 530 nm and emission at 590 nm (Table 10).

[3] = tested on: α-smooth muscle actin (α-SMA) mRNA; test: Anti-remodelling activity in human lung fibroblasts (HFL1): TGFβ-induced α-SMA mRNA (Assay 4); format: cell-based; settings: Homo sapiens, HFL1 cells, TGFβ 10 ng/ml, 24 h, read-out: Inhibition of α-SMA mRNA synthesis (%)
Description: A human foetal lung fibroblast cell line (HFL1 cells; ATCC accession number CCl-153) was used in this assay. The cells were cultured in medium containing a low level of foetal bovine serum (FBS; 0.1%) for 24 h. After 24 h of culturing the medium was changed to: (a) Control medium (medium containing 10% FBS, 1% phosphate saline and 0.5 mM L-glutamine), (b) Control medium and transforming growth factor beta (TGFβ; 10 ng/ml), (c) Control medium and TGFβ and test compounds (3 and 30 μM). The medium was collected after 24 h and the total mRNA extracted in Tri-reagent. The level of mRNA coding for α-smooth muscle actin (α-SMA) was assessed by real-time reverse transcription-polymerase chain reaction (rtRT-PCR) using primer couples that allow the amplification of α-SMA mRNA. Liver glyceraldehydes 3-phosphate dehydrogenase (GADPH) was used as a reference marker in this experiment. The inhibition of the TGTβ-induced overexpression of α-SMA mRNA by the test compounds was quantified.

[4] = biological target: TRPV1 receptor (Rattus norvegicus, UniProt O35433); test: TRPV1 modulation in DRG neurones: CGRP release in absence and presence of capsaicin (Assay 2); format: cell-based; parameters: The culture used for this experiment contained sensory neurones, Schwann cells and fibroblasts; endogenous in cells; host or cells: primary rat DRG sensory neurone culture (with Schwann cells and fibroblasts); settings: 20 min; for inhibition at 3 µM: 3 μM with capsaicin 1 μM; for inhibition at 3 µM / inhibition at 30 µM: −ve: inhibition, +ve: potentiation of capsaicin response, read-out: Effect of test compounds on capsaicin (1 μM)-induced CGRP release (%); for inhibition at 30 µM: 30 μM with capsaicin 1 μM; for Emax at 3 µM: test compound alone 3 μM; for Emax at 3 µM / Emax at 30 µM: rat DRG sensory neurones, read-out: CGRP release (% of capsaicin (1 μM) response); for Emax at 30 µM: test compound alone 30 μM
[5] = tested on: IL-1α-induced PGE2 release; test: IL-1α-induced PGE2 release in human diploid lung fibroblasts (WI-38) (Assay 5); format: cell-based; settings: Homo sapiens, WI-38 cells, IL-1α 1 nM, overnight
Description: as §3

[6] = biological target: T1, 5-lipoxygenase (Homo sapiens, UniProt P09917); test: 5-lipoxygenase activity (LTB4) in human peripheral blood mononuclear leukocytes (Assay 6); format: cell-based; settings: human PBMLs, A23187 30 μM, read-out: Inhibition of 5-LO (%)
T1 construct: endogenous in cells; host or cells: human peripheral blood mononuclear leukocytes (PBMLs)
T1 sequence (P09917 1-674): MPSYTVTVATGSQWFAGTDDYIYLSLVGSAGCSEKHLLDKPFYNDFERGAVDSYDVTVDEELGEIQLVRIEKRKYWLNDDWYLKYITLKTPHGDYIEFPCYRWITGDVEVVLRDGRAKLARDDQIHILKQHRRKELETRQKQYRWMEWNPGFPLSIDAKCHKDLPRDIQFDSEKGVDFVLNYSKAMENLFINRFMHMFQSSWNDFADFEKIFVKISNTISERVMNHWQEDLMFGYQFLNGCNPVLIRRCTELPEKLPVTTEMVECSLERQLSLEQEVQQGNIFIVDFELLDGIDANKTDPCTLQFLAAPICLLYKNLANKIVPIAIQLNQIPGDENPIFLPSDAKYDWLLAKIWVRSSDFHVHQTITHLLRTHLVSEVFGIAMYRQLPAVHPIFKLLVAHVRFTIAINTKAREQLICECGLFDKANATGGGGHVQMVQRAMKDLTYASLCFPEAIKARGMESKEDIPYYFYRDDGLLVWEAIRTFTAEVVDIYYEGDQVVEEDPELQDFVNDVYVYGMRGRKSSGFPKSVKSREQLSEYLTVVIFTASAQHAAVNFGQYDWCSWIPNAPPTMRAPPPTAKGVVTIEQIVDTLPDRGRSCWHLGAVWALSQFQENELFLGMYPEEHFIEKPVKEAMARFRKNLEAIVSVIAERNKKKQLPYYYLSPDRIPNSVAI
Description: Human peripheral blood mononuclear leukocytes (PBMLs) were isolated using a Ficoll-Paque density gradient. Human peripheral blood mononuclear leukocytes (5×10^6 cells) were incubated with A23187 (30 μM), a divalent cation ionophore used to initiate the biosynthesis of […], and with vehicle (0.1% DMSO) or test compound (3 and 30 μM) in Hank's balanced salt solution (HBBS) buffer, pH 7.4 at 37° C. for 15 min. The PBML solution was neutralized with NaOH (1 N) and centrifuged at 1000 g for 10 min and the supernatant collected. The concentration of leukotriene B4 (LTB4) in the supernatant was measured using an enzyme immunoassay kit (Assay Design Inc.). A reduction in the concentration of LTB4 indicated an inhibition of the enzyme 5-lipoxygenase (Table 11).

[7] = tested on: 5-HT-induced contractions in guinea pig ileum; test: Inhibition of 5-HT-induced contractions in guinea pig ileum (Assay 3); settings: Cavia porcellus, 5-HT 2.6 μM, read-out: Inhibition of 5-HT-induced contraction (%)
Description: as §1, §2

Chain of TRPV1 receptor (O35433 whole entry): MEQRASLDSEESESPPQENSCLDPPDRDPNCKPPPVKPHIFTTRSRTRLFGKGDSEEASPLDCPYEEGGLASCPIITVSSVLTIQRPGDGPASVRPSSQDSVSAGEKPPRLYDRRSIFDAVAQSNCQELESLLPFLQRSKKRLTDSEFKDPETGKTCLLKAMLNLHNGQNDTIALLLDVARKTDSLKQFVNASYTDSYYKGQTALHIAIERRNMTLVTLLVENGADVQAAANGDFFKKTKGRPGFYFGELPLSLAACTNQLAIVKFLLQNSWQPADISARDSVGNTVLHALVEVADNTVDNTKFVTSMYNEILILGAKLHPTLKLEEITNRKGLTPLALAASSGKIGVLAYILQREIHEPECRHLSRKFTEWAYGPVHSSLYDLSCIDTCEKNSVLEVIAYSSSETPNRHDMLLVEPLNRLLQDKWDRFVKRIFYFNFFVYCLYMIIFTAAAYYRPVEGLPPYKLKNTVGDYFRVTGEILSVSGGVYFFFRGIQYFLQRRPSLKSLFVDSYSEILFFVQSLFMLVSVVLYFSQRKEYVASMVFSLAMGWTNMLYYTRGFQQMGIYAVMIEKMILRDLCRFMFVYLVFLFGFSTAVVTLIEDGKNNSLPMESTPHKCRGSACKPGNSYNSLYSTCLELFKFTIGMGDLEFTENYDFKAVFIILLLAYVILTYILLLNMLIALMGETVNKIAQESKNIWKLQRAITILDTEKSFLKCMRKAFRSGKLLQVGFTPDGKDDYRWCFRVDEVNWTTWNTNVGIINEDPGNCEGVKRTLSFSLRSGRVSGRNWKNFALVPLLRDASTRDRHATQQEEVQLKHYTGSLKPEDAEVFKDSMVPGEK

Row | Structure (SMILES) | inhibition at 3 µM [4] [%] | inhibition at 30 µM [4] [%] | Emax at 3 µM [4] [%] | Emax at 30 µM [4] [%] | inhibition at 3 µM [6] [%] | inhibition at 30 µM [6] [%] | inhibition at 3 µM [1] [%] | inhibition at 30 µM [1] [%] | Decrease in cell viability (%) ([2]; 3 μM) | Decrease in cell viability (%) ([2]; 30 μM) | inhibition at 3 µM [3] [%] | inhibition at 30 µM [3] [%] | inhibition at 3 µM [5] [%] | inhibition at 30 µM [5] [%] | inhibition at 3 µM [7] [%] | inhibition at 30 µM [7] [%]
1 | COc1cc(CCC(=O)CC(=O)c2cccc(Cl)c2)ccc1O [Compound 22, 1-(3-Chlorophenyl)-5-(4-hydroxy-3-methoxyphenyl)pentane-1,3-dione] | 2 | -58 | 60 | 163 | 62 | 98 | 11 | 65 | 3 | 9 | -5 | 25 | 93 | 100 | 18 | 94
2 | COc1cc(CCC(=O)CC(=O)Cc2cccc3ccccc23)ccc1O [Compound 29, 6-(4-Hydroxy-3-methoxyphenyl)-1-naphthalen-1-yl-hexane-2,4-dione] | 46 | -41 | 65 | 164 | 47 | 98 | 17 | 89 | −1 | 12 | 33 | 86 | 86 | 99 | 5 | –
3 | COc1cc(CCC(=O)CC(=O)c2ccccc2-c2ccccc2)ccc1O [Compound 19, 1-(Biphenyl-2-yl)-5-(4-hydroxy-3-methoxyphenyl)-pentane-1,3-dione] | -29 | -159 | 139 | 286 | 48 | 99 | 8 | 81 | −1 | 57 | 57 | 97 | 73 | 100 | 13 | 39
4 | COc1cc(CCC(=O)CC(=O)c2ccc(C#N)cc2)ccc1O [Compound 82, 1-(4-Cyanophenyl)-5-(4-hydroxy-3-methoxyphenyl)pentane-1,3-dione] | 4 | 27 | 53 | 58 | 48 | 97 | 12 | 20 | −4 | 6 | -3 | 39 | 78 | 102 | 13 | 83
5 | COc1cc(CCC(=O)C(C)C(=O)C2(C)CC2)ccc1O (stereo not drawn) [Compound 7, 5-(4-Hydroxy-3-methoxylphenyl)-2-methyl-1-(1-methylcyclopropyl)-pentane-1,3-dione] | 19 | 41 | 35 | 76 | 24 | 63 | 4 | 12 | −4 | 4 | -8 | 9 | 47 | 94 | 0 | 26

The next lines start with results.

Row | inhibition at 3 µM [4] [%] | inhibition at 30 µM [4] [%] | Emax at 3 µM [4] [%] | Emax at 30 µM [4] [%] | inhibition at 3 µM [6] [%] | inhibition at 30 µM [6] [%] | Structure (SMILES) | inhibition at 3 µM [1] [%] | inhibition at 30 µM [1] [%] | Decrease in cell viability (%) ([2]; 3 μM) | Decrease in cell viability (%) ([2]; 30 μM) | inhibition at 3 µM [3] [%] | inhibition at 30 µM [3] [%] | inhibition at 3 µM [5] [%] | inhibition at 30 µM [5] [%] | inhibition at 3 µM [7] [%] | inhibition at 30 µM [7] [%]
6 | 17 | -77 | 56 | 109 | 32 | 95 | COc1cc(CCC(=O)CC(=O)C(C)(C)c2ccccc2)ccc1O [Compound 31, 6-(4-Hydroxy-3-methoxyphenyl)-1,1-dimethyl-1-phenyl-hexane-2,4-dione] | 12 | 68 | 5 | −7 | 34 | 80 | 83 | 101 | 10 | 96
7 | 26 | 29 | 48 | 38 | 6 | 48 | COc1cc(CCC(=O)C(C)(C)C(=O)C(C)(C)C)ccc1O [Compound 71, 1-(4-Hydroxy-3-methoxyphenyl)-4,4,6,6-tetramethylheptane-3,5-dione] | 0 | 35 | −1 | 11 | -1 | 20 | 41 | 95 | 3 | 53
